Paper PMC6978637 (Saudi Pharmaceutical Journal : SPJ, 2019)
Where “and” joins values, the source holds several entries; their conditions need not be identical. Equal values may be shown once. Read-outs that look alike come from different tables or passages of the source.

Tests used:
FGFR2 [1] = target: FGFR2 (Homo sapiens, UniProt P21802); assay: biochemical; details: FGFR2-IC50
FGFR2 [2] = assay: biochemical; details: for FGFR selectivity (in words): among FGFR1-4; for FGFR2-SI: selectivity index IC50/IC50, lowest IC50 of the compound = 1
NIH-3T3 cells = assay: WST-1 cytotoxicity assay; format: cell-based, mouse; details: Mus musculus, NIH3T3, 48 h, read-out: NIH-3T3 Cells IC50
FGFR4 = FGFR4 (Homo sapiens, UniProt P22455); assay: biochemical; format: biochemical
Sequence of FGFR4 (P22455 22-802): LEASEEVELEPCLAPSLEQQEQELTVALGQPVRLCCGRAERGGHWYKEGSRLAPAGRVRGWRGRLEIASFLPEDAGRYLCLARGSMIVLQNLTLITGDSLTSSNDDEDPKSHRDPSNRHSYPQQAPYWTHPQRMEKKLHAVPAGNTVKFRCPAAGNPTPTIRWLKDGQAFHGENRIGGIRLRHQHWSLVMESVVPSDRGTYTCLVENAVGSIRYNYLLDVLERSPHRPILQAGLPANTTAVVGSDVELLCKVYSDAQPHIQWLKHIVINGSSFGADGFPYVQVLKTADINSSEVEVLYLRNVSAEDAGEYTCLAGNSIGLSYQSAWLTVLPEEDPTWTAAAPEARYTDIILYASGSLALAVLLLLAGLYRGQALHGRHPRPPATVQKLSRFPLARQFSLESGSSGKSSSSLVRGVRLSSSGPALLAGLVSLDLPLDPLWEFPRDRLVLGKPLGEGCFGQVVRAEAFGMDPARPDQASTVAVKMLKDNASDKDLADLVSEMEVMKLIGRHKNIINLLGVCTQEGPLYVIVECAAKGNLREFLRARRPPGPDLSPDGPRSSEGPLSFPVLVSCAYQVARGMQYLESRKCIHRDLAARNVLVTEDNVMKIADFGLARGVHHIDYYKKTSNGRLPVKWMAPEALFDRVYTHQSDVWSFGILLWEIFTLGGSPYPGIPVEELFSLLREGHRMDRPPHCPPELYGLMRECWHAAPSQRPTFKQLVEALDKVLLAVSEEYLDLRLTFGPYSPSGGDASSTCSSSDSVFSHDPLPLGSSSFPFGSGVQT

FGFR1 [3] = target: FGFR1 (Homo sapiens, UniProt P11362); assay: Z'-LYTE kinase enzyme inhibition assay, FGFR1; format: biochemical
Sequence of FGFR1 (Homo sapiens, UniProt P11362) (P11362 22-822): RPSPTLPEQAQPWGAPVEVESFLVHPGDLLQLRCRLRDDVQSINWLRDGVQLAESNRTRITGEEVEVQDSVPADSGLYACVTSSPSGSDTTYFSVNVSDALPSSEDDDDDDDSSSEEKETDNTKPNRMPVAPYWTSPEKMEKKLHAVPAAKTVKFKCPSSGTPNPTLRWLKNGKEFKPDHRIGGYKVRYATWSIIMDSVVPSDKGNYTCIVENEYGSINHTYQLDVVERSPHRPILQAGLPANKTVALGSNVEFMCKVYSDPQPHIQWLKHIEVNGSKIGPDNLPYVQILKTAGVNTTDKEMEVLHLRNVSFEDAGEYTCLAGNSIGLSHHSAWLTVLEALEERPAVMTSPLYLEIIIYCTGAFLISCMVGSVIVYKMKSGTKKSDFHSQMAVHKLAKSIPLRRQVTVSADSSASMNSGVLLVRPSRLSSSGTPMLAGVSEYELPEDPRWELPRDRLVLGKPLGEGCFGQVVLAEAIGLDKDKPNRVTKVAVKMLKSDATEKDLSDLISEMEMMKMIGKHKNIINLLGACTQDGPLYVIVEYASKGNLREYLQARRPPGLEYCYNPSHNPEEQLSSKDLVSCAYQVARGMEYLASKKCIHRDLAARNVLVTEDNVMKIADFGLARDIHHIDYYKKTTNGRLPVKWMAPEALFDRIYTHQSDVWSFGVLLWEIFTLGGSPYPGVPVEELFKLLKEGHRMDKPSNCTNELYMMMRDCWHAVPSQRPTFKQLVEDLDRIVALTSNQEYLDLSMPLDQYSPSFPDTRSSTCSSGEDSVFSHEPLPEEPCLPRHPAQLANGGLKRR

FGFR1 [4] = assay: Z'-LYTE kinase enzyme inhibition assay, FGFR1; format: biochemical; details: for FGFR1-SI: selectivity index IC50/IC50, lowest IC50 of the compound = 1; for FGFR selectivity (in words): among FGFR1-4
FGFR3 [5] = assay: biochemical; format: biochemical; details: for FGFR selectivity (in words): among FGFR1-4
FGFR3 [6] = target: FGFR3 (Homo sapiens, UniProt P22607); assay: biochemical; format: biochemical
Sequence of FGFR3 (Homo sapiens, UniProt P22607) (P22607 23-806): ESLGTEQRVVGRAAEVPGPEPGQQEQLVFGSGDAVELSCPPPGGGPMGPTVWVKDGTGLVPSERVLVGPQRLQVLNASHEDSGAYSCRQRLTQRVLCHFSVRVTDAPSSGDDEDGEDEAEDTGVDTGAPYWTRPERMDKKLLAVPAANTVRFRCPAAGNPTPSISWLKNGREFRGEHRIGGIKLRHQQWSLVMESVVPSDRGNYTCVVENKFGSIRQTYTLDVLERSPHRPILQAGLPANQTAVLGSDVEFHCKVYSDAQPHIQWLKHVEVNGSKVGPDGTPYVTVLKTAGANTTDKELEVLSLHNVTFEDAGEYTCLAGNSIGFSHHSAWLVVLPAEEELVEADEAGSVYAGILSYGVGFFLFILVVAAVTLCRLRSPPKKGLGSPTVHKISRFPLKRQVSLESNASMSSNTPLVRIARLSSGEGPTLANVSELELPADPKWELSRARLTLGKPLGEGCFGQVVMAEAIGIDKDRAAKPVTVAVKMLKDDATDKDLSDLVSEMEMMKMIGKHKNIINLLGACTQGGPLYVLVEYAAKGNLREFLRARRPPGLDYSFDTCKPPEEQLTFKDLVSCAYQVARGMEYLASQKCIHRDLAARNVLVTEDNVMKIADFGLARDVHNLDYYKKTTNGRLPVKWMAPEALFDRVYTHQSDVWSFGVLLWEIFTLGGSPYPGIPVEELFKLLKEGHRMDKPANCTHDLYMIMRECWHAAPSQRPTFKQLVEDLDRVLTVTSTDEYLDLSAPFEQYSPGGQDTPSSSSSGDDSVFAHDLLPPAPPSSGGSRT

[7] = selectivity index IC50/IC50, lowest IC50 of the compound = 1

Sequence of FGFR2 (Homo sapiens, UniProt P21802) (P21802 22-821): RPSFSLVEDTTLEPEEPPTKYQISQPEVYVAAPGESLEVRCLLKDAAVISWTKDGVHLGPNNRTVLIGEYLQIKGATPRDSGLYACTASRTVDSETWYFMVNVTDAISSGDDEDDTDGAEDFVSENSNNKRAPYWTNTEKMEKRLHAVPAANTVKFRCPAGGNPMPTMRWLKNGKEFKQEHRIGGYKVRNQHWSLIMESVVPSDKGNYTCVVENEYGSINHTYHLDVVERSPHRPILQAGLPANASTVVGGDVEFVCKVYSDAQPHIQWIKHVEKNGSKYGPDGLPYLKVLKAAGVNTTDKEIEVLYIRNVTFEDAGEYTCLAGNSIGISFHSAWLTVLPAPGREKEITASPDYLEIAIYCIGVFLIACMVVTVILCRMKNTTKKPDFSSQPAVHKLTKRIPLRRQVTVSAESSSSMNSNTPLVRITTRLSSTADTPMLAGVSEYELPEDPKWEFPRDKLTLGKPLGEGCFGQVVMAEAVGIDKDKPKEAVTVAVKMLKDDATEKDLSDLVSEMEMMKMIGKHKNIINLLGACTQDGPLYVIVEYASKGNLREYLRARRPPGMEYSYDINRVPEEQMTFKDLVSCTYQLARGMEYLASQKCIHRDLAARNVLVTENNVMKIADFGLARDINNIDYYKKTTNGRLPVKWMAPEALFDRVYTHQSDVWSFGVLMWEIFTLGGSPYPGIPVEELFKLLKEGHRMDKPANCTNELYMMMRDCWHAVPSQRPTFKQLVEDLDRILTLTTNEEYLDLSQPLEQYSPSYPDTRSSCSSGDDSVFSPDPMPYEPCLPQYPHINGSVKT

Row | SMILES | IC50 (FGFR2 [1]) [nM] | FGFR selectivity (in words) (FGFR2 [2]) | FGFR2-SI (FGFR2 [2]) | IC50 (NIH-3T3 cells) [nM] | FGFR4-SI (FGFR4) | IC50 (FGFR4) [nM] | better inhibitory potency against FGFR2 than FGFR4 (FGFR4; FGFR4 in compare to FGFR2) [fold] | IC50 (FGFR1 [3]; FGFR1-IC50) [nM] | better inhibitory potency against FGFR2 than FGFR1 (FGFR1 [4]; FGFR1 in compare to FGFR2) [fold] | FGFR1-SI (FGFR1 [4]) | FGFR3-SI (FGFR3 [5]) | better inhibitory potency against FGFR2 than FGFR3 (FGFR3 [5]; FGFR3 in compare to FGFR2) [fold] | IC50 (FGFR3 [6]; FGFR3-IC50) | FGFR selectivity (in words) (FGFR3 [5]) | FGFR3-SI (FGFR3 [5]; [7]) | FGFR selectivity (in words) (FGFR1 [4]) | IC50 (FGFR4; read-out: FGFR4-IC50) [nM] | IC50 (FGFR1 [3]; read-out: FGFR1-IC50) [nM] | IC50 (FGFR3 [6]; read-out: FGFR3-IC50) [nM]
1 | O=C1Nc2ccc(-c3ccc4cc(O)ccc4c3)cc2/C1=C\c1ccc(N2CCOCC2)cc1 [Compound A1, (E)-5-(6-hydroxynaphthalen-2-yl)-3-(4-morpholinobenzylidene)indolin-2-one] | 5.95 | for FGFR2 | 1 | 1580 ± 171 | 6247.898 | 37100 ± 965 | 6247.9 | 19.8 ± 3.32 | 3.3 | 3.333 | 238.648 | 238.6 | 1420 ± 423 nM | – | – | – | – | – | –
2 | O=C1Nc2ccc(-c3ccc(-c4ccc(O)cc4)cc3)cc2/C1=C\c1ccc(N2CCOCC2)cc1 [Compound A2, (E)-5-(4'-hydroxy-[1,1'-biphenyl]-4-yl)-3-(4-morpholinobenzylidene)indolin-2-one] | 8.44 ± 0.237 | for FGFR2 | 1 | 949 ± 24.7 | 2514.228 | 21200 ± 351 | – | 219 ± 4.32 | – | 25.948 | 409.791 | – | 3460 ± 510 nM | – | – | – | – | – | –
3 | O=C1Nc2ccc(-c3ccc(C(=O)N4CCOCC4)cc3)cc2/C1=C\c1ccc(N2CCOCC2)cc1 [Compound A3, (E)-5-[4-(morpholin-4-carbonyl)phenyl]-3-(4-morpholinobenzylidene)indolin-2-one] | – | – | – | 3260 ± 121 | 69.878 | 3670 ± 290 | – | 686 ± 27.7 | – | 13.054 | – | – | 52.5 ± 4.7 nM | for FGFR3 | 1 | – | – | – | –
4 | O=C1Nc2ccc(-c3ccc(C(=O)N4CCCCC4)cc3)cc2/C1=C\c1ccc(N2CCOCC2)cc1 [Compound A4, (E)-3-(4-morpholinobenzylidene)-5-[4-(piperidine-1-carbonyl)phenyl]indolin-2-one] | – | – | – | 400 ± 100 | 141.176 | 15100 ± 313 | – | 107 ± 3.84 | – | 1 | 1.819 | – | 195 ± 5.61 nM | – | – | selectivity to FGFR1 and FGFR3 | – | – | –
5 | O=C1Nc2ccc(-c3ccc(C(=O)N4CCCC4)cc3)cc2/C1=C\c1ccc(N2CCOCC2)cc1 [Compound A6, (E)-3-(4-morpholinobenzylidene)-5-[4-(pyrrolidine-1-carbonyl)phenyl]indolin-2-one] | – | – | – | 818 ± 241 | 16.785 | 823 ± 108 | – | 49 ± 0.688 | – | 1 | 22.297 | – | 1090 ± 47.3 nM | – | – | selectivity to FGFR1 | – | – | –
6 | O=C1Nc2ccc(-c3ccc(C(=O)N4CCOCC4)cc3)cc2/C1=C\c1ccc(N2CCC(O)CC2)cc1 [Compound A9, (E)-3-[4-(4-hydroxypiperidin-1-yl)benzylidene]-5-[4-(morpholine-4-carbonyl)phenyl]indolin-2-one] | – | – | – | 1140 ± 220 | 927.339 | 17700 ± 329 | – | 64.4 ± 1.23 | – | 3.369 | – | – | 19.1 ± 3.22 nM | for FGFR3 | 1 | – | – | – | –
7 | O=C1Nc2ccc(-c3ccc(C(=O)N4CCCCC4)cc3)cc2/C1=C\c1ccc(N2CCC(O)CC2)cc1 [Compound A10, (E)-3-[4-(4-hydroxypiperidin-1-yl)benzylidene]-5-[4-(piperidine-1-carbonyl)phenyl]indolin-2-one] | – | – | – | 983 ± 158 | 1343.587 | 23200 ± 271 | – | 344.7 ± 3.41 | – | 20.006 | – | – | 17.2 ± 0.419 nM | for FGFR3 | 1 | – | – | – | –
8 | CN1CCN(C(=O)c2ccc(-c3ccc4c(c3)/C(=C\c3ccc(N5CCC(O)CC5)cc3)C(=O)N4)cc2)CC1 [Compound A11, (E)-3-[4-(4-hydroxypiperidin-1-yl)benzylidene]-5-[4-(4-methylpiperazine-1-carbonyl)phenyl]indolin-2-one] | – | – | – | 87800 ± 4290 | 191.383 | 20200 ± 259 | – | 155 ± 6.18 | – | 1.464 | – | – | 106 ± 2.8 nM | – | 1 | selectivity to FGFR1 and FGFR3 | – | – | –
9 | O=C1Nc2ccc(-c3ccc(C(=O)N4CCCC4)cc3)cc2/C1=C\c1ccc(N2CCC(O)CC2)cc1 [Compound A12, (E)-3-[4-(4-hydroxypiperidin-1-yl)benzylidene]-5-[4-(pyrrolidine-1-carbonyl)phenyl]indolin-2-one] | – | – | – | 4960 ± 187 | 217.749 | 4890 ± 402 | – | 646 ± 10.9 | – | 28.719 | – | – | 22.5 ± 0.737 nM | for FGFR3 | 1 | – | – | – | –
10 | CN1CCN(c2ccc(/C=C3/C(=O)Nc4ccc(-c5ccc(C(=O)N6CCOCC6)cc5)cc43)cc2)CC1 [Compound A15, (E)-3-[4-(4-methylpiperazin-1-yl)benzylidene]-5-[4-(morpholine-4-carbonyl)phenyl]indolin-2-one] | – | – | – | 9500 ± 260 | 382.588 | 14800 ± 449 | – | 38.7 ± 0.504 | – | 1 | – | – | 38.8 ± 1.35 nM | – | 1.003 | selectivity to FGFR1 and FGFR3 | – | – | –
11 | CN1CCN(c2ccc(/C=C3/C(=O)Nc4ccc(-c5ccc(C(=O)N6CCCCC6)cc5)cc43)cc2)CC1 [Compound A16, (E)-3-[4-(4-methylpiperazin-1-yl)benzylidene]-5-[4-(piperidine-1-carbonyl)phenyl]indolin-2-one] | – | – | – | 626 ± 140 | 1054.660 | 15050 ± 64.1 | – | 256 ± 28.1 | – | 17.919 | – | – | 14.3 nM and 14.2 nM | for FGFR3 | 1 | – | – | – | –
12 | CN1CCN(C(=O)c2ccc(-c3ccc4c(c3)/C(=C\c3ccc(N5CCN(C)CC5)cc3)C(=O)N4)cc2)CC1 [Compound A17, (E)-3-[4-(4-methylpiperazin-1-yl)benzylidene]-5-[4-(4-methylpiperazine-1-carbonyl)phenyl]indolin-2-one] | – | – | – | 4700 ± 105 | 542.643 | 7230 ± 288 | – | 819.8 ± 3.63 | – | 61.547 | – | – | 13.3 ± 2.93 nM | for FGFR3 | 1 | – | – | – | –
13 | CN1CCN(c2ccc(/C=C3/C(=O)Nc4ccc(-c5ccc(C(=O)N6CCCC6)cc5)cc43)cc2)CC1 [Compound A18, (E)-3-[4-(4-methylpiperazin-1-yl)benzylidene]-5-[4-(pyrrolidine-1-carbonyl)phenyl]indolin-2-one] | – | – | – | 2540 ± 146 | 295.505 | 14500 ± 211 | – | 49.2 ± 2.52 | – | 1 | 3.167 | – | 156 ± 31.3 nM | – | – | selectivity to FGFR1 | – | – | –
14 | O=CN1CCN(c2ccc(/C=C3/C(=O)Nc4ccc(-c5ccc6cc(O)ccc6c5)cc43)cc2)CC1 [Compound A25, (E)-4-{4-{[5-(6-hydroxynaphthalen-2-yl)-2-oxoindolin-3-ylidene]methyl}phenyl}piperazine-1-carbaldehyde] | – | – | – | 24500 ± 306 | 5.641 | 6130 ± 208 | – | 3976 ± 0.354 | – | 3.658 | – | – | 1090 ± 477 nM | – | 1 | – | – | – | –
15 | O=CN1CCN(c2ccc(/C=C3/C(=O)Nc4ccc(-c5ccc(-c6ccc(O)cc6)cc5)cc43)cc2)CC1 [Compound A26, (E)-4-{4-{[5-(4'-hydroxy-[1,1'-biphenyl]-4-yl)-2-oxoindolin-3-ylidene]methyl}phenyl}piperazine-1-carbaldehyde] | – | – | – | 2500 ± 268 | 24.028 | – | – | – | – | 1 | 1.14 | – | – | – | – | – | 10100 ± 322 | 422 ± 40.3 | 481 ± 24.1
16 | O=CN1CCN(c2ccc(/C=C3/C(=O)Nc4ccc(-c5ccc(C(=O)N6CCCCC6)cc5)cc43)cc2)CC1 [Compound A28, (E)-4-{4-{ {2-oxo-5-[4-(piperidine-1-carbonyl)phenyl]indolin-3-ylidene}methyl}phenyl}piperazine-1-carbaldehyde] | – | – | – | 839 ± 232 | 209.223 | 7030 ± 244 | – | 77.3 ± 3.14 | – | 2.299 | – | – | 33.6 ± 0.574 nM | – | 1 | – | – | – | –
17 | CN1CCN(C(=O)c2ccc(-c3ccc4c(c3)/C(=C\c3ccc(N5CCN(C=O)CC5)cc3)C(=O)N4)cc2)CC1 [Compound A29, (E)-4-{4-{ {5-[4-(4-methylpiperazine-1-carbonyl)phenyl]-2-oxoindolin-3-ylidene}methyl}phenyl}piperazine-1-carbaldehyde] | – | – | – | 10100 ± 251 | 32.626 | 6100 ± 347 | – | 9130 ± 1760 | – | 48.818 | – | – | 187 ± 4.12 nM | – | 1 | – | – | – | –
18 | O=CN1CCN(c2ccc(/C=C3/C(=O)Nc4ccc(-c5ccc(C(=O)N6CCCC6)cc5)cc43)cc2)CC1 [Compound A30, (E)-4-{4-{ {2-oxo-5-[4-(pyrrolidine-1-carbonyl)phenyl]indolin-3-ylidene}methyl}phenyl}piperazine-1-carbaldehyde] | – | – | – | 1590 ± 224 | 94.136 | 6320 ± 322 | – | 67.2 ± 2.92 | – | 1 | 2.880 | – | 193 ± 39.3 nM | – | – | – | – | – | –
